In publication PMC10113214 (Scientific Reports, 2023):

Key:
[1] = system: dorsal skin wounds; test: Histological evaluation of skin samples; format: in vivo, BALB/c mice; settings: Masson’s trichrome, versus RADA16-I group, Mann–Whitney U test
Description: Mice were sacrificed on day 18 post-injury. In addition, for investigation of early wound healing, 1 mouse from each group was sacrificed on day 4 post-injury. The skin samples were collected and stored in formalin. Skin samples embedded in paraffin were cut into 5 µm sections following staining with Masson’s trichrome (green: collagen, dermis; grey or dark grey: cell nuclei, epidermis, sebaceous glands; dark red: keratinized epidermis, muscle, hair; light red: red blood cells). Image acquisitions were made with a Leica DM IL microscope. To evaluate the collagen density in dorsal skin wounds, we employed the method of colour deconvolution described by Ruifrok and Johnston[52]. Using the ImageJ software with a colour deconvolution plug-in[53], we analyzed between 7 and 9 images of dorsal skin samples stained with Masson’ trichrome, representing 2–3 mice per group. The results are presented as mean relative collagen density.

[2] = Circular dichroism, conformation and thermal stability of β-sheet; format: physicochemical; settings: CD
Procedure: The molar ellipticity of peptides were registered on a Jasco J-815 spectrometer (JASCO, Easton, MD, USA). Solutions of peptide hybrids were prepared in water solution (10 mg/ml), incubated at 37 °C for 4 h and then diluted to a final concentration of 0.20 mg/ml. CD spectra measurements were performed at 25 °C, 30 °C, 35 °C, 40 °C, 45 °C, 50 °C, 55 °C and 60 °C, at 190–260 nm wavelength and at a scan speed of […]. The background of the solvent was subtracted. The results are presented as the relationship of mean residue molar ellipticity (MRME) [deg × cm^2 × dmol^−1] to wavelength [nm]. Measurements were performed in triplicate. In order to determine the peptides’ denaturation temperatures, the molar ellipticity rotatory angle at a fixed wavelength of 196 nm, [θ]196, was measured as a function of temperature (max 100 °C). CD temperature measurements were carried out up to a temperature of 100 °C. Above this temperature, the cure was extrapolated with GraphPad Prism 8 software using the 4PL curve fit function. The denaturation temperature was determined as the temperature at which the change in ellipticity (θ) was half complete.

[3] = system: full-thickness excisional dorsal skin wounds; test: Skin wound healing model in mice; format: in vivo, BALB/c mice
Procedure: Eight to ten-week-old BALB/c female mice were used for these experiments. All experimental procedures were approved by the Local Ethics Committee for Animal Experimentation in Bydgoszcz, Poland (Approval No. 49/2016). The study was conducted in compliance with the ARRIVE gudidelines. All animal handling methods were carried out in accordance with European Union Commission Recommendation of 18 June 2007 on guidelines for the accommodation and care of animals used for experimental and other scientific purposes. Before experiments, mice were randomized and divided into groups comprising six individuals. The mice were anaesthetized with inhaled 2–5% isoflurane. The skin on the dorsum was shaved and disinfected. After the skin was folded and raised cranially and caudally along the spine, the mouse was placed in a lateral position, and the folded skin was pierced with a 6.0 mm biopsy punch to make two through-and-through symmetrical wounds. Next, 10 µL of peptide hybrid hydrogel was applied onto each wound. Every gel was prepared in sterile conditions in biological safety cabinet, using sterile water to final concentration of 10 mg/ml (1%). Then the gels were incubated for 24 h allowing it to assemble. Control mice were treated with RADA16-I. The wounds were covered with a transparent Tegaderm TM dressing to protect the wound from outer environment of the cage and other animals. It was fastened with an adhesive plaster wrapped around the animal’s torso. The peptide hybrids were applied daily to the wounds for five consecutive days. The dressings were replaced daily in the first five days of the experiment and every second day until the end of the second week of the experiment. To measure the wound areas the wounds were photographed with a ruler placed next to the injury site. Wound areas were calculated using the computer-assisted image analysis program ImageJ[51].

Compound: CC(=O)N[C@@H](CCCNC(=N)N)C(=O)N[C@@H](C)C(=O)N[C@@H](CC(=O)O)C(=O)N[C@@H](C)C(=O)N[C@@H](CCCNC(=N)N)C(=O)N[C@@H](C)C(=O)N[C@@H](CC(=O)O)C(=O)N[C@@H](C)C(=O)N[C@@H](CCCNC(=N)N)C(=O)N[C@@H](C)C(=O)N[C@@H](CC(=O)O)C(=O)N[C@@H](C)C(=O)N[C@@H](CCCNC(=N)N)C(=O)N[C@@H](C)C(=O)N[C@@H](CC(=O)O)C(=O)N[C@@H](C)C(=O)NCC(=O)NCC(=O)NCC(=O)N[C@@H](C)C(=O)N[C@@H](C)C(=O)N1CCC[C@H]1C(=O)N[C@H](C(=O)NCC(=O)NCC(=O)NCC(=O)N[C@@H](CCCCN)C(=O)NCC(=O)N[C@@H](Cc1c[nH]cn1)C(=O)N[C@@H](CCCCN)C(N)=O)C(C)C [RADA-KGHK, Ac-(Arg-Ala-Asp-Ala)4-Gly-Gly-Gly-Ala-Ala-Pro-Val-Gly-Gly-Gly-Lys-Gly-His-Lys-NH2]
- epithelium (membrane-like structure) thickness on day 4 post-injury [1]: significantly thicker epithelium
- temperature of first disruption of the β-sheets ([2]; [θ]196 nm as function of temperature 4–100 °C, gel 10 mg/ml in water, 37 °C 4 h, diluted to 0.20 mg/ml, decrease of molar ellipticity): ~61 °C
- transition temperature (half β-conformation, half disordered) ([2]; [θ]196 nm vs temperature, 0.20 mg/ml in water, above 100 °C curve extrapolated, 4PL fit): about 92 °C
- wound closure on day 7 ([3]; BALB/c female mice, 6.0 mm punch dorsal wounds, 10 µL 1% hydrogel topically daily for five days, n = 6, SD): 44.4 ± 4.9%
- wound healing compared to RADA16-I ([3]; BALB/c mice, 1% hydrogel topically, day 2 up to day 14): Accelerated wound healing
